# Test results as given in US4284631A, “7-Substituted cephem compounds and pharmaceutical antibacterial compositions containing them” (Fujisawa Pharmaceutical Co., Ltd., priority 1978, dated 1981).
# Structures can show the parent of a compound that is named as a salt.
# Assays:
# Test in all cases: In vitro antibacterial activity, two-fold agar-plate dilution method
# Format in all cases: cell-based
# [1] = system: Escherichia coli NIHJ JC-2; details: NIHJJC2, HI-agar, 37° C., 20 hours, read-out: MIC (minimal inhibitory concentration)
# Description: (§1) In vitro antibacterial activity was determined by the two-fold agar-plate dilution method as described below.
# (§2) One loopful of the 100-fold dilution of an overnight culture of each test strain in Trypticasesoy broth was streaked on heart infusion agar (HI-agar) containing graded concentrations of the test compound and incubated at 37° C. for 20 hours. The minimal inhibitory concentration (MIC) was expressed in μg/ml.
# Klebsiella pneumoniae 20 = details: HI-agar, 37° C., 20 hours, read-out: MIC (minimal inhibitory concentration)
# Description: as §1, §2
# Proteus mirabilis 18 = details: HI-agar, 37° C., 20 hours, read-out: MIC (minimal inhibitory concentration)
# Description: as §1, §2
# [2] = system: Proteus vulgaris IAM-1025; details: IAM1025, HI-agar, 37° C., 20 hours, read-out: MIC (minimal inhibitory concentration)
# Description: as §1, §2
# [3] = system: Pseudomonus aeruginosa NCTC-10490; details: HI-agar, 37° C., 20 hours, read-out: MIC (minimal inhibitory concentration)
# Description: as §1, §2
# [4] = system: Staphylococcus aureus 209 P JC-1; details: 209PJC1, HI-agar, 37° C., 20 hours, read-out: MIC (minimal inhibitory concentration)
# Description: as §1, §2
SMILES,MIC [1] [µg/mL],MIC (Klebsiella pneumoniae 20) [µg/mL],MIC (Proteus mirabilis 18) [µg/mL],MIC [2] [µg/mL],MIC [3] [µg/mL],MIC [4] [µg/mL]
"Nc1nc(/C(=N/OCCO)C(=O)NC2C(=O)N3C(C(=O)O)=CCSC23)cs1 (stereo not drawn) [Compound 2, 7-[2-(2-aminothiazol-4-yl)-2-(2-hydroxyethoxyimino)acetamido]-3-cephem-4-carboxylic acid (syn isomer)]",0.05,0.025,0.025,0.025,3.13,12.5
"CSCO/N=C(\C(=O)NC1C(=O)N2C(C(=O)O)=CCSC12)c1csc(N)n1 (stereo not drawn) [Compound 4, 7-[2-(2-aminothiazol-4-yl)-2-(methylthiomethoxyimino)acetamido]-3-cephem-4-carboxylic acid (syn isomer)]",0.05,0.025,0.05,0.025,1.56,1.56
"Nc1nc(/C(=N/OCc2ccon2)C(=O)NC2C(=O)N3C(C(=O)O)=CCSC23)cs1 (stereo not drawn) [Compound 6, 7-[2-(2-aminothiazol-4-yl)-2-(3-isoxazolylmethoxyimino)acetamido]-3-cephem-4-carboxylic acid (syn isomer)]",0.1,0.025,0.1,0.025,1.56,3.13
"NCc1ccc(CO/N=C(\C(=O)NC2C(=O)N3C(C(=O)O)=CCSC23)c2csc(N)n2)cc1 (stereo not drawn) [Compound 5, 7-[2-(2-aminothiazol-4-yl)-2-(4-aminomethylbenzyloxyimino)acetamido]-3-cephem-4-carboxylic acid dihydrochloride (syn isomer)]",0.1,0.05,0.1,0.05,3.13,0.78
"CCOCCO/N=C(\C(=O)NC1C(=O)N2C(C(=O)O)=CCSC12)c1csc(N)n1 (stereo not drawn) [Compound 3, 7-[2-(2-aminothiazol-4-yl)-2-(2-ethoxyethoxyimino)acetamido]-3-cephem-4-carboxylic acid (syn isomer)]",0.2,0.025,0.2,0.025,1.56,3.13
"N#CCO/N=C(\C(=O)NC1C(=O)N2C(C(=O)O)=CCSC12)c1csc(N)n1 (stereo not drawn) [Compound 1, 7-[2-(2-aminothiazol-4-yl)-2-cyanomethoxyiminoacetamido]-3-cephem-4-carboxylic acid (syn isomer)]",0.05,0.025,0.025,0.025,1.56,6.25
